Here are results for twelve molecules from PubChem BioAssay (NCI).

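Assay format: 96-well plates, 48-hour exposure. TGI marks complete inhibition of growth.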

Experiment in all cases: NCI-60 cell line screen, 48 h
Test [1] concerns DU-145 prostate.
Test [2] concerns OVCAR-3 ovarian.
The subject of test [3] is COLO 205 colon.
Test [4] has as its system M14 melanoma.
Test [5] deals with HCT-15 colon.
In test [6] the test system is NCI/ADR-RES ovarian.
Test [7] relates to UACC-257 melanoma.
For test [8], the system named is ACHN renal.
Test [9] relates to SNB-75 CNS.
Test [10] has as its system HOP-62 NSCLC.
The test system of test [11] is MALME-3M melanoma.
The test system of test [12] is A498 renal.

As for `Cn1c(=S)[nH]c2c(Cl)cc(Cl)cc2c1=O`, the TGI in test [1], in [2], in [3], in [4], in test [5] and in [6] was above 100 µM each time. In addition, the TGI in test [7], in test [8], in test [9] and in test [10] was above 100 µM in each case.
Consider `Cc1ccc(-c2cnc(NC3OC(COC(=O)c4ccccc4)C(OC(=O)c4ccccc4)C(OC(=O)c4ccccc4)C3OC(=O)c3ccccc3)s2)cc1` (stereo not given), for which the TGI in [1], in [2], in test [3], in test [4], in test [5] and in test [6] was above 100 µM throughout. Further, the TGI in test [11], in [7], in test [8], in test [9] and in test [10] was above 100 µM in each case.
On to `Cc1nc2c(n1CCCl)C(=O)c1ccccc1C2=O`, for which the TGI in test [1] was above 100 µM; in test [2], above 100 µM; in test [3] it was 30.2 µM; in test [4] it was 17.1 µM; in [5], 40.9 µM; in test [6], 63.6 µM. The TGI in test [11] is 19.2 µM; in [7] it was 28.9 µM; in test [8], above 100 µM; in [9], above 100 µM; in test [10], 62.4 µM.
Consider `Clc1cccc(Cl)c1C1SCc2nc3cc4ccccc4cc3n21` (stereo not given), for which the TGI in test [1], in [2], in test [3], in [4], in test [5] and in test [6] was above 100 µM in each case. For the same molecule, the TGI in [11], in test [7], in [8], in [9] and in test [10] was above 100 µM in each case.
Regarding `COC(=O)C1=C(C(=O)OC)C(C(=O)c2ccccc2)N2N=C(c3ccc(Cl)cc3)C=CC12` (stereo not given), the TGI in [12], in test [1], in [2], in test [3], in test [4] and in test [5] was above 100 µM each time. Further, the TGI in test [6] is above 100 µM; in [11] it was 83.7 µM; in test [7], above 100 µM; in test [8], above 100 µM; in test [10] it was above 100 µM.
Turning to `C#CCOC(=O)C(N)CS` (stereo not given), the TGI in test [12], in test [1], in test [2], in [3], in [4] and in [6] was above 100 µM throughout. In addition, the TGI in test [11], in test [7], in test [8], in test [9] and in [10] was above 100 µM each time.
`c1ccc2c(c1)n1c(N3CCOCC3)[n+]3ccccc3c1c1c3cccc[n+]3c(N3CCOCC3)n21`: the TGI in [12], in [1], in test [2], in test [3], in test [4] and in test [5] was above 100 µM in each case. Moreover, the TGI in [6], in test [11], in test [7], in [8] and in [9] was above 100 µM each time.
In the case of `COc1ccccc1NC(=S)Nc1cccc(C)n1`, the TGI in test [12], in test [1], in test [2], in test [3], in test [4] and in test [5] was above 100 µM each time. In addition, the TGI in [6] is above 100 µM; in test [11], above 100 µM; in [7], above 100 µM; in test [9] it was 63.5 µM; in test [10], above 100 µM.
As to `CCOC(=O)C1C(C(C)C)C2(C#N)C(=N)OC1(C)C2(C#N)C#N` (stereo not given), the TGI in [12] is above 100 µM; in [1] it was above 100 µM; in [3] it was 82.1 µM; in test [4] it was above 100 µM; in [5] it was above 100 µM; in test [6], above 100 µM. In addition, the TGI is above 100 µM in test [11], above 100 µM in [7], above 100 µM in test [8] and 74.4 µM in test [9].
With `CC/C(=C/OC)P1(=O)OC(C)(C)CN1C(C)(C)C` (stereo not given), the TGI in test [12], in test [1], in [2], in [3], in test [4] and in [5] was above 100 µM throughout. In addition, the TGI in test [6], in test [11], in test [7], in test [8] and in test [10] was above 100 µM each time.
As for `CC1=C(C(=O)OC23CC4CC(CC(C4)C2)C3)C(c2ccccc2OC(F)F)C(C(=O)OC23CC4CC(CC(C4)C2)C3)=C(C)N1` (stereo not given), the TGI in test [12], in test [1], in test [2], in test [3], in [4] and in [5] was above 100 µM each time. Also, the TGI in test [6], in test [11], in [7], in test [9] and in test [10] was above 100 µM in each case.
With `COc1c(C(=O)O)cccc1-c1cccc(C(=O)NCCN(CCNC(=O)c2cccc(-c3cccc(C(=O)O)c3OC)c2OC)CCNC(=O)c2cccc(-c3cccc(C(=O)O)c3OC)c2OC)c1OC`, the TGI in test [12] is 96.2 µM; in test [1], above 100 µM; in [2], 64.6 µM; in test [3] it was 62.9 µM; in [5], above 100 µM; in test [6] it was above 100 µM. For the same molecule, the TGI is 88.1 µM in test [11]; above 100 µM in test [7]; above 100 µM in [8]; above 100 µM in [9]; above 100 µM in test [10].
